From PMC7555119, “Characterization of Novel Synthetic Polyphenols: Validation of Antioxidant and Vasculoprotective Activities” (Antioxidants, 2020)
Values after ≈ are worked out from the molar mass of the structure shown. Where two headings read alike, the source gives them in different places.

Columns and labels:
[1] = Oxygen radical absorbance capacity (ORAC) assay
Procedure: The ORAC assay was performed following Ou et al., as modified by Garcés-Rimón et al.. All samples and reagents were dissolved in phosphate buffer (75 mM; pH 7.4). […] The fluorescence was recorded at 40 °C every 55 s for 95 min using a fluorimeter (SpectraMax M2; Molecular Devices, California, USA), with excitation and emission wavelengths of 480 and 520 nm, respectively. All samples were tested in triplicate. ORAC values were expressed as μmol of Trolox equivalents (TE)/μmol of pure compound.

[2] = Stability in aqueous media (H2O/acetonitrile 80:20, HPLC-MS); assay type: physicochemical; conditions: for Aqueous Stability (%): remaining pure compound (HPLC) after two months at room temperature in aqueous solution (+20% acetonitrile); for stability in aqueous media: H2O/acetonitrile (80:20%), room temperature, checked for 60 days
Text: The solutions were checked by HPLC-MS at regular intervals of time for 60 days. […] The rest of the compounds suffered progressive degradation, with complete disappearance from the solution after 10 or 20 days. The most unstable polyphenol derivatives were 4 and 10 (Figure S1), having both two p-dihydroxy substitutions in the phenyl rings, which points to the rapid and easy oxidation to the p-hydroquinone. From the four compounds with three phenyl rings, only one was stable in aqueous solution (17).

[3] = Aqueous thermodynamic solubility in H2O (UV); assay type: physicochemical; conditions: water, thermodynamic from solid
Text: 4) Log P and aqueous solubility of selected compounds.
Table S2. Theoretical Log P values and aqueous thermodynamic solubility measured for
Comp `Chemical Structure MW LogP Calc Aqueous Solubility a
a Thermodynamic solubility in H 2O (UV). […]

[4] = ABTS radical cation scavenging assay
Procedure: The 2,2′-azino-bis (3-ethylbenzothiazoline-6-sulfonic acid) diammonium salt (ABTS) assay was performed according to Re et al. and modified by Oki et al. for its use in microplates. Samples were diluted in methanol. An ABTS^•+ stock solution was prepared by adding 44 μL of potassium persulfate (140 mmol/L) to a 2.5 mL ABTS^•+ aqueous solution (7 mmol/L). The working solution of the radical ABTS^+ was prepared by diluting the stock solution 1:75 (v/v) in a sodium phosphate buffer (5 mmol/L, pH 7.4) to obtain an absorbance value of 0.7±0.02 at 734 nm. Samples (30 μL) were added to 270 μL of the working solution of ABTS^•+ in a microplate. Absorbance was measured at 734 nm and 30 °C for 20 min, every 5 min in a Synergy HT plate spectrophotometer (Biotek Instruments, Winoosky, VT, USA). A calibration curve was made with Trolox (20–250 μM). All samples were analyzed in triplicate. Results were expressed in μmol TE/μmol of pure compound, as for the ORAC assays.

[5] = test system: Saccharomyces cerevisiae strain BY4741; assay: In vivo antioxidant capacity in stressed yeasts (growth recovery, survivors); assay type: cell-based
Procedure: Saccharomyces cerevisiae haploid strain BY4741 was used as described previously. Briefly, 20 μL of glycerol stock culture was revived in 5ml of YPD medium (1% yeast extract, 2% bacteriological peptone and 2% dextrose) at 28 °C, with shaking (210 rpm). Fifty microliters of 20-h-old culture was used to inoculate fresh 5ml YPD (control medium) or 5 mL of oxidative stress medium (YPOxD: YPOxD; 1% yeast extract, 2% bacteriological peptone, 1% dextrose and 3% H2O2). Stress (and control) was conducted during 16h at 28 °C, with shaking (220 rpm).
Growth rate was determined from growth kinetics using the BioScreen C plate-reader system (OY Growth Curves Ab Ldt., Helsinki, Finland). Stressed yeast cultures (16 h old) were used to inoculate 200 µl of fresh media to an initial OD595 of 0.05–0.07, being distributed in 100-well honeycomb plates (Oy Growth Curves) in triplicate per each condition (each different dose of each compound). Plates were then incubated at 28 °C for 72h, with shaking (High force), taking OD measurement each 15 min in the Bioscreen C. Maximum growth rate (μmax) and biomass production (carrying capacity) were determined in R using ‘Growthcurver’ package version 0.3 [24]. Growth curves were constructed in EXCEL, represented as mean ± SEM (standard error of mean). […] In addition, to measure survival after oxidative stress and antioxidant effectiveness of each compound, yeast cells from each challenge were serially diluted in 96-well plates, and each dilution was spotted (with a 8 × 6 stainless steel replica platter from SIGMA) in triplicate to determine viable colonies after 24–48 h at 28 °C. Survivors (mean ± SEM) were compared between treatments with one-way ANOVA, Fisher’s LSD test, with alpha at 0.05 for significance.

Compound	melting point	ORAC [1]	Aqueous Stability (%) [2] [%]	other results
O=C(Cc1ccc(O)cc1O)Nc1ccc(O)cc1O [Compound 5, N-(2,4-Dihydroxyphenyl)-2-(2′,4′-dihydroxyphenyl)acetamide]	75 to 78 °C	5.2 ± 0.4 µmol of trolox/µmol of pure compound	–	–
O=C(Cc1cc(O)ccc1O)Nc1ccc(O)cc1O [Compound 1, N-(2,4-Dihydroxyphenyl)-2-(2′,5′-dihydroxyphenyl)acetamide]	178 to 180 °C	11.0 ± 0.4 µmol of trolox/µmol of pure compound	2	–
O=C(Cc1cc(O)ccc1O)N(c1ccc(O)cc1)c1ccc(O)cc1 [Compound 9, 2-(2′,5′-Dihydroxyphenyl)-N,N-bis(4-hydroxyphenyl)acetamide]	124 to 126 °C	29.5 ± 0.5 µmol of trolox/µmol of pure compound	0	ORAC ([1]; TE: Trolox Equivalents): above 25 TE
O=C(Nc1ccc(O)cc1)Nc1ccc(O)cc1 [Compound 15, N,N′-bis(4-Hydroxyphenyl)urea]	245 °C	8.9 ± 0.4 µmol of trolox/µmol of pure compound	90	solubility [3]: 62.6 ± 0.1 µg/mL (≈ 256 µM); ABTS [4]: 1.17 ± 0.01 µmol of trolox/µmol of pure compound; stability in aqueous media [2]: sufficiently stable; growth rate (r) recovery of stressed yeast ([5]; H2O2-stressed BY4741, doses 2, 20 and 40 μg): dose-related antioxidant effect; carrying capacity (k) recovery of stressed yeast ([5]; H2O2-stressed BY4741, each dose tested): able to recover the carrying capacity of yeast cells similarly as control antioxidants; carrying capacity (k) recovery of stressed yeast, 2 μg dose ([5]; low 2 μg dose): slightly better than the other two polyphenols and resveratrol
O=C(Cc1cc(O)ccc1O)Nc1ccc(O)c(O)c1 [Compound 6, 2-(2′,5′-Dihydroxyphenyl)-N-(3,4-dihydroxyphenyl)acetamide]	180 °C (dec.)	9.4 ± 0.4 µmol of trolox/µmol of pure compound	0	–
O=C(Nc1cc(O)ccc1O)Nc1cc(O)ccc1O [Compound 16, N,N′-bis(2,5-Dihydroxyphenyl)urea]	109 °C (dec.)	11.9 ± 0.4 µmol of trolox/µmol of pure compound	0	–
O=C(Nc1ccc(O)cc1)Nc1cc(O)ccc1O [Compound 12, N-(2,5-Dihydroxyphenyl)-N′-(4′-hydroxyphenyl)urea]	180 to 182 °C	12.5 ± 0.7 µmol of trolox/µmol of pure compound	0	–
O=C(Nc1ccc(O)cc1O)Nc1cc(O)ccc1O [Compound 11, N-(2,4-Dihydroxyphenyl)-N′-(2′,5′-dihydroxyphenyl)urea]	> 155 °C (dec.)	6.6 ± 0.1 µmol of trolox/µmol of pure compound	–	–
O=C(Nc1cc(O)ccc1O)N(Cc1cc(O)ccc1O)c1ccc(O)cc1 [Compound 18, N-(2′,5′-Dihydroxybenzyl)-N′-(2″,5″-dihydroxiphenyl)-N-(4-hydroxyphenyl)urea]	114 to 115 °C	15.3 ± 0.7 µmol of trolox/µmol of pure compound	0	–
Oc1cc(O)c2c(c1)O[C@H](c1ccc(O)c(O)c1)[C@H](O)C2 [(-)-Epicatechin, reference compound]	–	10.03 ± 5.92 µmol of trolox/µmol of pure co	–	ABTS [4]: 5.90 ± 0.73 µmol of trolox/µmol of pure co
O=C(Cc1cc(O)ccc1O)N(Cc1cc(O)ccc1O)c1ccc(O)cc1 [Compound 10, N-(2′,5′-Dihydroxybenzyl)-2-(2″,5″-dihydroxyphenyl)-N-(4-hydroxyphenyl) acetamide]	114 to 116 °C	27.6 ± 0.5 µmol of trolox/µmol of pure compound	0	ORAC ([1]; TE: Trolox Equivalents): above 25 TE; stability in aqueous media [2]: most unstable
O=C(Nc1ccc(O)cc1)Nc1ccc(O)c(O)c1 [Compound 14, N-(3,4-Dihydroxyphenyl)-N′-(4′-hydroxyphenyl)urea]	184 to 187 °C	9.6 ± 0.1 µmol of trolox/µmol of pure compound	0	–
O=C(Cc1ccc(O)cc1O)Nc1cc(O)ccc1O [Compound 2, 2-(2′,4′-Dihydroxyphenyl)-N-(2,5-dihydroxyphenyl)acetamide]	–	8.1 ± 0.1 µmol of trolox/µmol of pure compound	–	–
OCCc1ccc(O)c(O)c1 [Hydroxytyrosol, reference compound]	–	6.33 ± 0.08 µmol of trolox/µmol of pure co	–	ABTS [4]: 0.97 ± 0.05 µmol of trolox/µmol of pure co
O=c1c(O)c(-c2ccc(O)c(O)c2)oc2cc(O)cc(O)c12 [Quercetin, reference compound]	–	6.61 ± 0.27 µmol of trolox/µmol of pure co	–	ABTS [4]: 5.28 ± 0.29 µmol of trolox/µmol of pure co
O=C(Cc1cc(O)ccc1O)Nc1cc(O)ccc1O [Compound 4, N-(2,5-Dihydroxyphenyl)-2-(2′,5′-dihydroxyphenyl)acetamide]	204 to 207 °C (dec.)	14.4 ± 0.2 µmol of trolox/µmol of pure compound	0	stability in aqueous media [2]: most unstable
O=C(Nc1ccc(O)c(O)c1)Nc1cc(O)ccc1O [Compound 13, N-(2,5-Dihydroxyphenyl)-N′-(3′,4′-dihydroxyphenyl)urea]	141 to 143 °C	7.8 ± 0.3 µmol of trolox/µmol of pure compound	–	–
Oc1cc(O)c2c(c1)OC(c1ccc(O)c(O)c1)C(O)C2 [D-Catechin, reference compound]	–	8.59 ± 0.84 µmol of trolox/µmol of pure co	–	ABTS [4]: 3.17 ± 1.22 µmol of trolox/µmol of pure co
